The results in this text go back to article PMC12922749 (Science Advances, 2026).

What all share (experiment): SPR
Holding throughout (format): binding

The target of test [1] is Nur77.
Test [2] has as its target Nur77. The source holds these as a separate data set.
Test [3] deals with Nur77. The source holds these as a separate data set.

Like-named read-outs stand apart in the source and are kept apart here.

For orientation: Kd means the free concentration of one partner at which half of the binding sites on the other are occupied at equilibrium, for simple one-to-one binding. A high value points to a looser complex.

Molecule `CCCCC/C=C\C[C@@H](O)/C=C/C=C\C/C=C\CCCC(=O)O` [12R-HETE] yielded a Kd in test [1] of 1.44 µM.
In turn, `CCCCC/C=C\C[C@H](O)/C=C/C=C\C/C=C\CCCC(=O)O` [12S-HETE] displayed a Kd in test [2] of 13.9 µM.
Molecule `CCCCCCCC(=O)c1c(O)cc(O)cc1CC(=O)OCC` [Cytosporone B] had a Kd in test [3] of 28.9 µM.
